Source: patent US8987201B2, “Black bear parathyroid hormone and methods of using black bear parathyroid hormone” (Michigan Technological University, priority 2009, dated 2015)
Marks after values point to notes of the source that are not given here.

Key:
[1] = tested on: rats; settings: cited from earlier work
[2] = tested on: men and women with age-related osteoporosis; settings: 20-30% of cortical and cancellous bone lost; cited from earlier work
[3] = tested on: Male Swiss-Webster mice; test: Cortical bone dynamic histomorphometry in the femur (calcein labels); assay type: in vivo, mouse; settings: femoral midshaft, 2.5 nmol/kg s.c., 8 weeks, SD in parentheses
Source text: (§1) All handling procedures and experiments were approved by the Michigan Technological University Institutional Animal Care and Use Committees. Male Swiss-Webster mice were obtained from a commercial breeder (Harlan, Indianapolis, Ind.). All animals were maintained on a 12-h light/12-h dark cycle, and were permitted free access to water and food containing 0.95% calcium (Purina Rodent Diet #5001).
(§2) In the first experiment, 11 wk old mice received daily (5 days/week) subcutaneous injections of 2.5 nmol/kg PTH 1-34 (hPTH 1-34 or bbPTH 1-34) or acidic saline vehicle (0.15 M NaCl+0.001 N HCl) for 8 weeks (n=10 mice/group). In the second experiment, 12 wk old mice received daily (5 days/week) subcutaneous injections of 2.5 nmol/kg PTH 1-84 (hPTH 1-84 or bbPTH 1-84) or acidic saline vehicle for 8 weeks (n=10 mice/group). All PTH- and vehicle-treated animals received subcutaneous injections of calcein at a dosage of 10 mg/kg on days 12 and 3 before death to label mineralizing bone surfaces. Twenty-four hours following the last treatment injection, mice were sacrificed by carbon dioxide asphyxiation. Right femurs were fixed in 10% neutral buffered formalin. Left femurs were wrapped in 0.15M saline soaked gauze and stored at −20 deg C. Left tibias were stored in 70% ethanol at 4 deg C.
(§3) Following the bending test, the left femoral diaphyses were ashed in a furnace to determine mineral content (ash fraction). Right femoral diaphyses were embedded in methyl methacrylate and sectioned with a diamond saw to expose the midshaft cross-section. Images of the midshaft cross-sections were captured using a digital camera (Spot Insight QE, Diagnostic Instruments Inc., Sterling Heights, Mich.), and Scion Image analysis software (Scion Corporation, Frederick, Md.) was used to calculate the periosteal area (Ps.Ar), cortical area (Ct.Ar), and endosteal area (Es.Ar) for each sample. Cortical bone thickness (Ct.Th) was calculated in 0.1 mm increments for each anatomical quadrant and for the entire cross-section using image analysis software (Bioquant Osteo, Nashville, Tenn.). Thin sections from the midshaft of the right femur were ground to a thickness of 50 μm and mounted on glass slides. Images of calcein labels were captured at 100× magnification and periosteal and endosteal mineral apposition rates (Ps.MAR and Es.MAR, respectively) and mineralizing surfaces (Ps.MS/BS and Es.MS/MS) were quantified (Bioquant) for each femur.
(§4) All bone geometrical, architectural, and mineral properties were normalized by body mass to account for potential variation in animal size (31-33). Trabecular bone properties quantified by micro-computed tomography were compared by ANOVA between vehicle, bear, and human PTH-treated mice within each study (PTH 1-34 or PTH 1-84). The microCT parameters were not directly compared between the PTH 1-34 and PTH 1-84 studies because analyses were conducted on different microCT machines. For all other bone properties, all six experimental groups (from both the PTH 1-34 and PTH 1-84 studies) were compared with ANOVA and Fisher's PLSD. A significance of p<0.05 was used for all comparisons.

[4] = tested on: MC3T3 subclone 4 cells; test: PTH attenuation of serum-starvation induced caspase-3/7 activity; assay type: cell-based, mouse; settings: all concentrations pooled; bbPTH 1-34 vs hPTH 1-34 p=0.006, vs either PTH 1-84 p≦0.018; bbPTH 1-84 vs hPTH 1-84 p=0.090
Procedure: MC3T3 subclone 4 cells (ATCC, CRL-2593) were maintained in standard culture media (89% alpha-minimum essential media, 1% penicillin/streptomycin, and 10% FBS) at 37° C. in 5% CO2. Cells were not used beyond passage 30.
MC3T3 cells were seeded at a density of 20,000 cells/well in 96-well plates and allowed to attach overnight. Culture media was then aspirated and replaced with 100 μl of culture media containing 10% FBS and either vehicle (PBS) or PTH (10-100 nM) for one hour, after which media was aspirated and cells were washed with PBS to remove residual serum. To induce apoptosis, cells were incubated in control or serum-free media for 6 hours. Replacement media contained 89% alpha-minimum essential media, 1% penicillin/streptomycin, and either 10% FBS (control media) or 0% FBS (starvation media). After starvation, media was aspirated, cells were washed with PBS, and 50 μl of fresh PBS was added to each well. Caspase-3/7 activity was determined by cleavage of a DEVD substrate (Caspase-Glo 3/7 Assay, #G8093, Promega Corporation). Measured luminescence values were fit to a standard curve prepared with known concentrations of recombinant human caspase-3 (#SE-169, BIOMOL Research Laboratories Inc.). Five wells of each treatment were run per 96-well plate, and procedures were repeated on a minimum of 10 plates. […]

[5] = tested on: human fetal osteoblasts (hFOB); test: Serum starvation cell death in human fetal osteoblasts (trypan blue); assay type: cell-based; settings: 100 nM for 1 hour before serum starvation for 24 hours, preliminary studies, p<0.0001
Procedure: All PTH peptides used in the current study attenuated apoptotic signaling induced by serum starvation in vitro (FIG. 19). bbPTH 1-34 reduced apoptotic signaling in pre-osteoblastic cells more than human PTH (FIG. 19). Recently, we found similar results with preliminary studies in human fetal osteoblasts (hFOB). Serum starvation for 24 hours increased cell death in hFOB (confirmed via trypan blue staining), but pretreatment of hFOB cells with 100 nM PTH 1-34 or 1-84 for 1 hour before starvation reduced percent cell death (percentage change in cell death compared to vehicle pretreatment, hPTH 1-34: −18%, bbPTH 1-34: −25%, hPTH 1-84: −17%, bbPTH 1-84: −21%; p<0.0001; data not shown). […] However, although bbPTH 1-84 was less anti-apoptotic than bbPTH 1-34 and hPTH 1-34 in vitro (FIG. 19) it caused the greatest increases in cortical and trabecular bone mass in the in vivo studies (Table 1, Table 2).

[6] = tested on: ovariectomized (OVX) Sprague-Dawley rats; test: In vivo effects of human PTH1-84 and bear PTH1-84 in ovariectomized rats; parameters: species or system rat; settings: 2.5 nmol/kg s.c., eight weeks
Procedure: Thirty female, 2.5-month old Sprague-Dawley rats were ovariectomized (OVX) at the commercial breeding facility The OVX animals were randomly assigned into 3 groups of 10 animals per group for further experiments.
Six weeks after the OVX procedure, the rats were injected subcutaneously for an eight-week period (daily for five days per week) with vehicle (saline) or 2.5 nmol/kg bear or human PTH1-84. Animals were euthanized 24 hours after the last injection. Samples were obtained from the euthanized animals for further analysis.
Femur bending strength and proximal tibia trabecular architecture were investigated as described in Example 12.

[7] = tested on: Male Swiss-Webster mice; test: Cortical bone mineral content (ash fraction) and geometrical properties of the femur; assay type: in vivo, mouse; settings: femoral midshaft, 2.5 nmol/kg s.c., 8 weeks, normalized by body mass, SD in parentheses
Source text: as §1, §2, §3, §4

[8] = tested on: procollagen-1 mRNA; settings: Nasu et al., 1998; cited from earlier work
[9] = tested on: Male Swiss-Webster mice; test: Trabecular bone structure and mineralization in the proximal tibia (micro-computed tomography); assay type: in vivo, mouse; settings: PTH 1-84 study: 12 wk old mice, 8 weeks, proximal tibia, normalized by body mass
Source text: as §1, §2
Trabecular bone architecture and mineralization were evaluated in the left proximal tibial metaphysis (0.7 mm distal to the growth plate) using micro-computed tomography. Tibias from experiment 1 were scanned on a μCT35 scanner (Scanco Medical AG, Basserdorf, Switzerland) at 3.5 μm (high) resolution. Tibias from experiment 2 were scanned on a μCT40 scanner (Scanco Medical AG, Basserdorf, Switzerland) at 7 μm (high) resolution. Bones were scanned in 70% ethanol. Trabecular bone volume fraction (BV/TV, %), trabecular number (Tb.N, mm^−1), trabecular thickness (Tb.Th, m), trabecular separation (Tb.Sp, m), trabecular apparent mineral density (App.Mn.Dn, mgHA/cm^3) and trabecular tissue mineral density (Mat.Mn.Dn, mgHA/cm^3) were computed using the manufacturer's software.
as §4

## ALX1-11: recombinant human PTH 1-84 (NPS Pharmaceuticals), under consideration for approval by the FDA
[1]; long-term usage
  osteosarcoma in rats: generates osteosarcoma
[2]
  bone recovered during the suggested treatment regimen: 8%

## human PTH1-84 [hPTH 1-84]
[3]
  Endosteal MAR: 0.62 ( ).39)
  Endosteal MS/BS: 32.1 (19.4)
  Periosteal MAR: 0.60 (0.40)
  Periosteal MS/BS: 20.2 (16.7)
[4]
  caspase-3/7 activity, comparison between peptide groups: lower levels of apoptosis
[1]; rat, in vivo
  rate of carcinogenicity compared to human PTH 1-34: lower rate of carcinogenicity
[5]
  percentage change in cell death compared to vehicle pretreatment: −17%
[6]
  bone volume fraction / trabecular bone volume: equivalently increase
[7]
  Ct.Ar: 29.0 (3.7) mm^2/kg
  Ct.Th: 3.41 (0.59)^a mm/kg
  Es.Ar: 25.6 (3.3) mm^2/kg
  Ps.Ar: 54.6 (4.4)^b,c mm^2/kg
[8]
  production of procollagen-1 mRNA: does not
[9]; 2.5 nmol/kg s.c. daily 5 days/week
  BV/TV: 1.34 %/kg
[9]; 2.5 nmol/kg s.c.
  App. Mn. Dn: 2513 ^b mgHA/(cm^3*kg)
  Mat. Mn. Dn.: 29810 mgHA/(cm^3*kg)
  Tb. N: 98.7 1/mm*kg
  Tb. Sp: 9.57 mm/kg
  Tb. Th: 1.26 mm/kg
